# Source: patent US20210122730A1, “GLUCOCORTICOID RECEPTOR MODULATORS” (ORIC Pharmaceuticals, Inc., priority 2017, published 2021)
# pIC50: −log10 of the molar value.
# Tests used:
# GR = biological target: T1, GR (Homo sapiens, UniProt P04150); experiment: In Vitro GR Luciferase Reporter Assay (antagonist mode, CHO-K1-GR-MMTV-Luc reporter cells); type: cell-based; settings: antagonist mode, 10 nM Dexamethasone
# T1 construct: expressed in transfected cells; host or cells: CHO-K1
# T1 sequence (P04150 1-777): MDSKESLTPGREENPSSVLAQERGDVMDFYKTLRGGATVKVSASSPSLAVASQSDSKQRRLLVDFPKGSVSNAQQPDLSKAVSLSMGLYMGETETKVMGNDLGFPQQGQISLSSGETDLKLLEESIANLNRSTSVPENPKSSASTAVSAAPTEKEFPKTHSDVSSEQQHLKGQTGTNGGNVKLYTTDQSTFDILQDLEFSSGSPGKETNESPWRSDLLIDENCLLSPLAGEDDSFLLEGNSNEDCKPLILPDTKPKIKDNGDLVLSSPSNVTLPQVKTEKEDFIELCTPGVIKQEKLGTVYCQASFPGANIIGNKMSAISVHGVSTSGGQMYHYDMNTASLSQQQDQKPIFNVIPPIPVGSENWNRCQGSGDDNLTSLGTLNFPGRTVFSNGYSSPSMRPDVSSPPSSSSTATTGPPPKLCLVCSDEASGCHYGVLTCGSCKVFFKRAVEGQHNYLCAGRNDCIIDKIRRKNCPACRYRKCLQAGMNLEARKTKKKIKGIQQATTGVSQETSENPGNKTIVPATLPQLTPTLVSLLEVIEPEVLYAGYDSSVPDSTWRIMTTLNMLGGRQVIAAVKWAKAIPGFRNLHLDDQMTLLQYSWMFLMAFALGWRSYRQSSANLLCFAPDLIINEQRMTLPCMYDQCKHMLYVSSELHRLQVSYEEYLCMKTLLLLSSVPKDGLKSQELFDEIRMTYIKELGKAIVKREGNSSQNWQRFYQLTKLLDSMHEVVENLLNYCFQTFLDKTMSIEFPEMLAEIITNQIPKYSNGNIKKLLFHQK
# Method in brief: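 CHO-K1-GR-MMTV-Luc cells in phenol red-free DMEM with 10% CSS, stimulated with 10 nM dexamethasone (final) and treated with 8-point 1:5 compound dilutions for about 18-24 h at 37° C. Luciferase measured by OneGlo luminescence; IC50 derived for inhibition of GR activity.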
# CYP2C8 = biological target: T2, CYP2C8 (Homo sapiens, UniProt P10632); experiment: CYP Inhibition Assay (CYP2C8, human liver microsomes, paclitaxel substrate); type: in vitro ADME; settings: pH 7.4; pooled human liver microsomes 0.1 mg/mL, probe substrate paclitaxel
# T2 construct: Pooled human microsomes were obtained from Sekisui XenoTech, KS; tissue Sekisui XenoTech, KS; host or cells: pooled human liver microsomes
# T2 sequence (P10632 1-490): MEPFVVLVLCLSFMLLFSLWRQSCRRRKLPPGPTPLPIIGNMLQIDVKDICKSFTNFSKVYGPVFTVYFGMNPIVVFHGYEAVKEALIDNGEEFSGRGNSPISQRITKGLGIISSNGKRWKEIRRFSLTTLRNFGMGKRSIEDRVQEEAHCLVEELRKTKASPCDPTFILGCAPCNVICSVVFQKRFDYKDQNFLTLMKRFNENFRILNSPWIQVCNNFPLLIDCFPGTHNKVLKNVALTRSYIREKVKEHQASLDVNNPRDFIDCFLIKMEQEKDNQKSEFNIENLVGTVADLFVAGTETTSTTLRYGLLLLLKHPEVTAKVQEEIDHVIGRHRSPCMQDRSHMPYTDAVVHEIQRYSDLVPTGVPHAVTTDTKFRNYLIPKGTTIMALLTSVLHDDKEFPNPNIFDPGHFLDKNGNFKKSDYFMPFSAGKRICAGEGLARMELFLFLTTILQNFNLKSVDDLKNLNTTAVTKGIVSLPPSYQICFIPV
# Description: Example B: CYP Inhibition Assay
# Objective: To assess the % inhibition of test compounds against CYP2C8 enzyme in human liver microsomes.
# Pooled human microsomes were obtained from Sekisui XenoTech, KS, and were used for in vitro assessment of compound inhibitory potential of the major drug metabolizing human CYP enzymes.
# Test compounds were dissolved in DMSO as 10 mM stock solutions and diluted to 200 µM in acetonitrile as working solutions. The total concentrations of DMSO and acetonitrile were 0.02% and 0.5%, respectively, in the assay.
# The assay was performed in duplicate in a 96-well plate. The reaction mixture ([…]) containing a final concentration of 0.1 mg/mL pooled human liver microsomes, 50 mM potassium phosphate, pH 7.4 buffer, was re-warmed at 37° C. for 5 minutes. The reaction was initiated with NADPH solution which was at 1 mM final concentration, and carried out for 5 minutes at 37° C. It was terminated by the addition of 3-fold volume of quench solution (1:1 acetonitrile:methanol with 0.1% formic acid and the internal standard of tolbutamide). The sample was vortexed, centrifuged at 4,000 rpm for 15 min at 4° C. The incubation in the presence of vehicle (0.02% DMSO and 0.5% acetonitrile) was used as the enzyme activity control. The analyses of metabolite 6α-hydroxypaclitaxel in supernatant was performed with LC-MS/MS method (Sciex API 4500 Qtrap coupled to a Shimadzu LC-20AD HPLC).
# The CYP enzyme activity was determined based on the formation of 6a-hydroxypaclitaxel metabolite. The % inhibition was calculated using this equation: % Inhibition=100×(1−Ainactivator/Avehicle), where Ainactivator is the CYP enzyme activity in the presence of test compound, and Avehicle is the CYP activity in the presence of vehicle.
pIC50 (GR),inhibition at 5 min (CYP2C8),Compound
≥ 7.00,25 to 50%,"Cn1ccc(S(=O)(=O)N(CC2CC2)[C@H]2CCC3=Cc4c(cnn4-c4ccc(F)cc4)C[C@]3(C(=O)c3cc(C(F)(F)F)ccn3)C2)n1 [Example 178, N-(cyclopropylmethyl)-N-((4aS,6S)-1-(4-fluorophenyl)-4a-(4-(trifluoromethyl)picolinoyl)-4,4a,5,6,7,8-hexahydro-1H-benzo[f]indazol-6-yl)-1-methyl-1H-pyrazole-3-sulfonamide]"
≥ 7.00,50 to 75%,"CC(C)N([C@H]1CCC2=Cc3c(cnn3-c3ccc(F)cc3)C[C@]2(C(=O)c2ncc(C(F)(F)F)s2)C1)S(=O)(=O)c1ccn(C)n1 [Example 182, N-((4aS,6S)-1-(4-fluorophenyl)-4a-(5-(trifluoromethyl)thiazole-2-carbonyl)-4,4a,5,6,7,8-hexahydro-1H-benzo[f]indazol-6-yl)-N-isopropyl-1-methyl-1H-pyrazole-3-sulfonamide]"
≥ 7.00,25 to 50%,"Cn1ncc(S(=O)(=O)N(C2CC2)[C@H]2CCC3=Cc4c(cnn4-c4ccc(F)cc4)C[C@]3(C(=O)c3ncc(C(F)(F)F)s3)C2)n1 [Example 183, N-cyclopropyl-N-((4aS,6S)-1-(4-fluorophenyl)-4a-(5 (trifluoromethyl)thiazole-2-carbonyl)-4,4a,5,6,7,8-hexahydro-1H-benzo[f]indazol-6-yl)-2-methyl-2H-1,2,3-triazole-4-sulfonamide]"
≥ 7.00,25 to 50%,"Cn1ccc(S(=O)(=O)N(CC(F)(F)F)[C@H]2CCC3=Cc4c(cnn4-c4ccc(F)cc4)C[C@]3(C(=O)c3ncc(C(F)(F)F)s3)C2)n1 [Example 184, N-((4aS,6S)-1-(4-fluorophenyl)-4a-(5-(trifluoromethyl)thiazole-2-carbonyl)-4,4a,5,6,7,8-hexahydro-1H-benzo[f]indazol-6-yl)-1-methyl-N-(2,2,2-trifluoroethyl)-1H-pyrazole-3-sulfonamide]"
≥ 7.00,50 to 75%,"Cn1ccc(S(=O)(=O)N(CC(C)(C)O)[C@H]2CCC3=Cc4c(cnn4-c4ccc(F)cc4)C[C@]3(C(=O)c3ncc(C(F)(F)F)s3)C2)n1 [Example 189, N-((4aS,6S)-1-(4-fluorophenyl)-4a-(5-(trifluoromethyl)thiazole-2-carbonyl)-4,4a,5,6,7,8-hexahydro-1H-benzo[f]indazol-6-yl)-N-(2-hydroxy-2-methylpropyl)-1-methyl-1H-pyrazole-3-sulfonamide]"
≥ 7.00,25 to 50%,"CC(C)N([C@H]1CCC2=Cc3c(cnn3-c3ccc(F)cc3)C[C@]2(C(=O)c2ncc(C(F)(F)F)s2)C1)S(=O)(=O)c1cnn(C)c1 [Example 191, N-((4aS,6S)-1-(4-fluorophenyl)-4a-(5-(trifluoromethyl)thiazole-2-carbonyl)-4,4a,5,6,7,8-hexahydro-1H-benzo[f]indazol-6-yl)-N-isopropyl-1-methyl-1H-pyrazole-4-sulfonamide]"
≥ 7.00,50 to 75%,"CC(C)N([C@H]1CCC2=Cc3c(cnn3-c3ccc(F)cc3)C[C@]2(C(=O)c2cc(C(F)(F)F)ccn2)C1)S(=O)(=O)c1cnn(C)c1 [Example 193, N-((4aS,6S)-1-(4-fluorophenyl)-4a-(4-(trifluoromethyl)picolinoyl)-4,4a,5,6,7,8-hexahydro-1H-benzo[f]indazol-6-yl)-N-isopropyl-1-methyl-1H-pyrazole-4-sulfonamide]"
≥ 7.00,50 to 75%,"Cn1ncc(S(=O)(=O)N(CC2CC2)[C@H]2CCC3=Cc4c(cnn4-c4ccc(F)cc4)C[C@]3(C(=O)c3ncc(C(F)(F)F)s3)C2)n1 [Example 194, N-(cyclopropylmethyl)-N-((4aS,6S)-1-(4-fluorophenyl)-4a-(5-(trifluoromethyl)thiazole-2-carbonyl)-4,4a,5,6,7,8-hexahydro-1H-benzo[f]indazol-6-yl)-2-methyl-2H-1,2,3-triazole-4-sulfonamide]"
